Values of other authors in patent publication US6476058B2 (Isotechnika, Inc., priority 1998, dated 2002).

Key:
[1] = test system: human; settings: racemic mixture administered to a human
[2] = test system: patients with chronic stable angina
[3] = in vivo

## CCOC(=O)C1=C(COCCN)NC(C)=C(C(=O)OC)C1c1ccccc1Cl (racemic) [amlodipine, (R.S.) 3-ethyl-5-1-methyl-2-(2-aminoethoxymethyl)-4-(2-chlorophenyl)-1,4-dihydro-6-methyl-3,5-pyridinedicarboxylate]
[1]
  adverse effects: headache and edema, dizziness, flushing, palpitation, fatigue, nausea, abdominal pain and somnolence
[2]
  reduction in blood pressures: 4/1
In vivo
  metabolites excreted in the urine: 60%
  parent compound excreted in the urine: 10%
oral, food
  bioavailability in the presence of food: not altered
Renal impairment
  influence of renal impairment on pharmacokinetics: not significantly influenced
[3]
  serum calcium concentration: not affected
